Data as given in patent publication US20060142349A1, “Methods of modulating the activities of alpha-7 nicotinic acetylcholine receptor” (Pfizer Inc, priority 2004, published 2006).
“Also recorded” adds a separate entry of the source. Like-named read-outs stand apart in the source and are kept apart here.

Assays:
[1] = target: T1, α7 nicotinic acetylcholine receptor (Rattus norvegicus, UniProt Q05941); assay: Inhibition of desensitization of α7 nicotinic acetylcholine receptor by acetylcholine, whole cell patch clamp; assay type: cell-based; details: rat hippocampal neurons, continuous exposure to compound, acetylcholine 1 mM applied for 1 second once every minute
T1 construct: Currents were recorded from individual neurons using the whole; endogenous in cells; host or cells: primary hippocampal neurons from postnatal day 3 Sprague-Dawley rats, cultured 1-2 weeks

[2] = target: T1, α7 nicotinic acetylcholine receptor; assay: Resensitization of desensitized α7 nicotinic acetylcholine receptor, whole cell patch clamp; assay type: cell-based

T1 sequence (Q05941 23-502): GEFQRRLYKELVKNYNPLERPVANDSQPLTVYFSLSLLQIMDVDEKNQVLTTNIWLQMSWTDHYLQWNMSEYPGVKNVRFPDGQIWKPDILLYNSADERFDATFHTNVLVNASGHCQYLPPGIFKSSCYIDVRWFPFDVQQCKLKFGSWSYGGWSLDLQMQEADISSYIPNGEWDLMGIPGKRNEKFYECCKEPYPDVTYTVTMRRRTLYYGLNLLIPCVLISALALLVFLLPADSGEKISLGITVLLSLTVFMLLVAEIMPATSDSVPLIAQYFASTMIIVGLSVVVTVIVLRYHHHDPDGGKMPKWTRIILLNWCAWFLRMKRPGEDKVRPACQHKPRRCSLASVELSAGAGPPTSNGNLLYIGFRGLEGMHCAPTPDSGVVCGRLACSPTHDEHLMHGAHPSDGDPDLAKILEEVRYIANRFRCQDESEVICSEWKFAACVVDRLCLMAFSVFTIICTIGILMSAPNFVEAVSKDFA

## Oc1ccc2[nH]ccc2c1 [5-hydroxyindole]
[1]
  inhibition of desensitization (desensitization kinetics of acetylcholine-induced ion currents): does not alter the rate of receptor desensitization; also recorded: had no such effect; also recorded: did not affect the desensitization kinetics
[2]; rat hippocampal neurons, applied after 60 seconds of continuous exposure to agonist Compound 1 (3 μM), in its continued presence
  resensitization of the desensitized α7 nicotinic acetylcholine receptor (inward current evoked in the continued presence of agonist): does not resensitize; also recorded: did not resensitize; also recorded: no significant effect

## Cl.O=C(N[C@H]1CN2CCC1CC2)c1ccc(Cl)cc1 [Compound 1, N-[(3R)-1-azabicyclo[2.2.2]oct-3-yl]-4-chlorobenzamide hydrochloride]
[2]; rat hippocampal neurons, agonist applied continuously for 3 minutes, hydrochloride
  agonist-evoked inward current and receptor desensitization: desensitization; also recorded: initial inward current that rapidly declined back to baseline

## COc1cc(OC)c(NC(=O)Nc2cc(C)on2)cc1Cl [Compound 2, N-(5-chloro-2,4-dimethoxyphenyl)-N′-(5-methylisoxazol-3-yl)urea]
[1]
  inhibition of desensitization (desensitization kinetics of acetylcholine-induced ion currents): inhibition
[1]; listed as compound 2
  inhibition of desensitization (desensitization kinetics of acetylcholine-induced ion currents): significant inhibition or slowing of receptor desensitization
[2]
  resensitization of the desensitized α7 nicotinic acetylcholine receptor (inward current evoked in the continued presence of agonist): resensitizes; also recorded: large persistent inward current that was readily reversed upon washout

## CN1CCCC1c1cccnc1 (stereo not shown) [nicotine]
[2]; nicotine as agonist, expected result ("should result")
  agonist-evoked inward current and receptor desensitization: initial inward current that rapidly declines back to baseline
